In patent US10322104B2, “Disulfur bridge linkers for conjugation of a cell-binding molecule” (Suzhou M-Conj Biotech Co., Ltd., priority 2015, dated 2019):

Key:
[1] = system: NCI-N87, a human gastric carcinoma cell line (Ag+); test: In vitro cytotoxicity (MTT), N87 cells; format: cell-based
Procedure: (§1) The cell lines used in the cytotoxicity assays were HL-60, a human promyelocytic leukemia cell line; NCI-N87, a human gastric carcinoma cell line; and SKOV3, a human ovarian carcinoma cell line. For HL-60, and NCI-N87, the cells were grown in RPMI-1640 with 10% FBS. For SKOV3 cells, the cells were grown in McCoy's 5A Medium with 10% FBS. To run the assay, the cells (180 μl, 6000 cells) were added to each well in a 96-well plate and incubated for 24 hours at 37° C. with 5% CO2. Next, the cells were treated with test compounds (20 μl) at various concentrations in appropriate cell culture medium (total volume, 0.2 mL). The control wells contain cells and the medium but lack the test compounds. The plates were incubated for 120 hours at 37° C. with 5% CO2. MTT (5 mg/ml) was then added to the wells (20 μl) and the plates were incubated for 1.5 hr at 37° C. The medium was carefully removed and DMSO (180 μl) was added afterward. After it was shaken for 15 min, the absorbance was measured at 490 nm and 570 nm with a reference filter of 620 nm. The inhibition % was calculated according to the following equation: inhibition %=[1−(assay-blank)/(control-blank)]×100.

[2] = system: SKOV3, a human ovarian carcinoma cell line (Ag+); test: In vitro cytotoxicity (MTT), SK-OV-3 cells; format: cell-based
Procedure: as §1

[3] = system: human gastric carcinoma N-87 cell line tumor xenograft; test: Antitumor activity in vivo, N-87 tumor xenograft; design: species or system female BALB/c Nude mice; conditions: one injection
Procedure: Five-week-old female BALB/c Nude mice (30 animals) were inoculated subcutaneously in the area under the right shoulder with N-87 carcinoma cells (5×10^6 cells/mouse) in 0.1 mL of serum-free medium. The tumors were grown for 8 days to an average size of 136 mm^3. The animals were then randomly divided into 5 groups (6 animals per group). The first group of mice served as the control group and was treated with the phosphate-buffered saline vehicle. […] Three dimensions of the tumor were measured every 4 days and the tumor volumes were calculated using the formula tumor volume=½ (length×width×height). The weight of the animals was also measured at the same time. A mouse was sacrificed when any one of the following criteria was met: (1) loss of body weight of more than 20% from pretreatment weight, (2) tumor volume larger than 1500 mm^3, (3) too sick to reach food and water, or (4) skin necrosis. A mouse was considered to be tumor-free if no tumor was palpable.

[4] = system: HL-60, a human promyelocytic leukemia cell line (Ag−); test: In vitro cytotoxicity (MTT), HL-60 cells; format: cell-based; conditions: 120 hours incubation, read-out: IC50 (nM) HL60 cell (Ag−)
Procedure: as §1

[5] = relative to HL60 cell (Ag−) IC50

T-DM1
IC50 ([1]; MTT, 120 hours incubation): 0.266 nM | Specificity for N87 cell [1, 5]: over 56 | IC50 ([2]; MTT, 120 hours incubation): 0.177 nM | Specificity for SK-OV-3 cell [2, 5]: over 84 | animals with no tumor measurable ([3]; 5 mg/Kg i.v., at days 13 and 21 until day 37 and 45, 6 animals per group): 2/6 | duration of tumor growth inhibition ([3]; 5 mg/kg, i.v.): about 44 days | anti-tumor effect (FIG. 12) ([3]; 5 mg/kg, i.v., day 13˜21 till day 60 (the end of experiment)): did not completely eliminate the tumor | IC50 [4]: > 15 nM
